Patent US7314861B2, “Melanin-concentrating hormone analogs” (priority 2001, dated 2008)
Where a SMILES comes first, the peptide text is derived from it. Bridges are numbered along the chain shown (N, C = ends). [ ]: non-standard residue; d: D form. Arg(NO2) = N=C(NCCC[C@H](N)C(=O)O)N[N+](=O)[O-]

What was measured:
[1] = biological target: T1, human MCH-1R (Homo sapiens, UniProt Q99705); test: Aequorin bioluminescence functional assay, MCH-1R; details: for MCH-1R Activation %: % Activation at 10 μM, aequorin functional assay
[2] = biological target: T1, human MCH-1R; test: Radiolabeled MCH-R binding assay (SPA based), MCH-1R
Procedure: Cell membranes were prepared on ice. Each T-75 flask was rinsed twice with 10 ml of Enzyme-free Cell Dissociation Buffer (Specialty Media, Lavallette, N.J.), and the cell monolayer was detached in an additional 10 ml of Enzyme-free Cell Dissociation Buffer by incubation at room temperature for 10 minutes. Dissociated cells were centrifuged (500×g for 10 minutes at 4° C.), resuspended in 5 ml homogenization buffer (10 mM Tris-HCl, pH 7.4, 0.01 mM Pefabloc, 10 μM phosphoramidon, 40 μg/ml bacitracin) and then homogenized using a glass homogenizer (10-15 strokes). The homogenate was centrifuged for 10 minutes (1,000×g at 4° C.). The resulting supernatant was then centrifuged at 38,700×g for 15 minutes at 4° C. Pelleted membranes were resuspended (passed through 25 gauge needle 5 times), snap-frozen on liquid nitrogen, and stored at −80° C. until use.
For the SPA-based assay, WGA-PVT beads (NEN Life Sciences Products) were resuspended in Dulbecco's PBS with calcium and magnesium (500 mg beads in 4 ml PBS). […] The suspension was mixed gently for 20 minutes, 12.3 ml of assay buffer and protease inhibitors were added (final concentration given): 2 μg/ml leupeptin, 10 μM phosphoramidon, 40 μg/ml bacitracin, 5 μg/ml aprotinin, 0.1 mM Pefabloc.
Coated beads were kept on ice until use. […] Binding reactions were allowed to proceed at room temperature for 3 hours. Quantitation was performed by scintillation counting (TopCount device).

[3] = biological target: human MCH-R2 (Homo sapiens, UniProt Q969V1); test: Aequorin bioluminescence functional assay, MCH-2R; details: aequorin functional assay; for MCH-2R Activation %: % Activation at 10 μM; for EC50: MCH-2R EC50 (nM)
Chain of human MCH-R2 (Q969V1 whole entry): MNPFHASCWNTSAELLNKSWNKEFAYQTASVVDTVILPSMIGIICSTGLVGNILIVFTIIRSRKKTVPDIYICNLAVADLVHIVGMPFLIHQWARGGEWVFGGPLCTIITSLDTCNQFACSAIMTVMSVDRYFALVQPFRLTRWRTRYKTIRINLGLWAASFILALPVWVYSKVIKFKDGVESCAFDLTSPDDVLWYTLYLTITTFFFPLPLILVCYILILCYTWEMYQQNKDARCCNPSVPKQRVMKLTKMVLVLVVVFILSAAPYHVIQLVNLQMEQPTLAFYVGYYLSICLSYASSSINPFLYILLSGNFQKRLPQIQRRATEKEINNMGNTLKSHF
Procedure: The aequorin bioluminescence assay can be used to measure the activity of G protein-coupled receptors that couple through the Gα protein subunit family consisting of Gq and G11. Such coupling leads to phospholipase C activation, intracellular calcium mobilization and protein kinase C activation.
Following approximately 40 hours of expression the apo-aequorin in the cells was charged for 4 hours with coelenterazine (10 μM) under reducing conditions (300 μM reduced glutathione) in ECB buffer (140 mM NaCl, 20 mM KCl, 20 mM HEPES-NaOH [pH=7.4], 5 mM glucose, 1 mM MgCl2, 1 mM CaCl2, 0.1 mg/ml bovine serum albumin).
The cells were harvested, washed once in ECB medium and resuspended to 500,000 cells/ml. 100 μl of cell suspension (corresponding to 5×10^4 cells) was then injected into the test plate containing MCH or MCH analogs, and the integrated light emission was recorded over 30 seconds, in 0.5 second units. 20 μL of lysis buffer (0.1% final Triton X-100 concentration) was then injected and the integrated light emission recorded over 10 seconds, in 0.5 second units. The “fractional response” values for each well were calculated by taking the ratio of the integrated response to the initial challenge to the total integrated luminescence including the Triton X-100 lysis response.

T1 sequence (Q99705 whole entry): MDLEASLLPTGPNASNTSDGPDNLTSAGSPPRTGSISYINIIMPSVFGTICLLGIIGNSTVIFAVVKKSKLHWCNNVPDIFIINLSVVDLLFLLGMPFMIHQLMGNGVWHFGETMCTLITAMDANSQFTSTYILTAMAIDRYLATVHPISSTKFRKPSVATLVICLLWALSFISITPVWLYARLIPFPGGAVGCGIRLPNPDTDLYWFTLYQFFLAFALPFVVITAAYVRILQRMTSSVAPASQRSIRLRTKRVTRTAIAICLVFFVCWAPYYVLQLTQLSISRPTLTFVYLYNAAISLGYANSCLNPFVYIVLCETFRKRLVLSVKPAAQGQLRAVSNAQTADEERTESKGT

SMILES	EC50 [1] [nM]	MCH-1R Activation % ([1]; Table 1) [%]	IC50 [2] [nM]	MCH-2R Activation % ([3]; Table 1) [%]	MCH-1R Activation % ([1]; Table 3) [%]	MCH-2R Activation % ([3]; Table 3) [%]	EC50 ([3]; Table 3) [nM]
CSCC[C@@H]1NC(=O)[C@@H](NC(=O)[C@H](CCCNC(=N)N)NC(C)=O)CSSC[C@@H](C(N)=O)NC(=O)[C@@H]2CCCN2C(=O)[C@H](CCCNC(=N)N)NC(=O)[C@H](Cc2ccc(O)cc2)NC(=O)[C@H](C(C)C)NC(=O)[C@H](CCCNC(=N)N[N+](=O)[O-])NC(=O)[C@@H](C)NC(=O)[C@H](CC(C)C)NC1=O [compound 37] (Ac-RCML[dA][Arg(NO2)]VYRPC-NH2; disulfide 2-11)	> 10000	0.1	> 1000	34			
CSCC[C@H](NC(=O)[C@H](C)NC(=O)[C@H](Cc1ccccc1)NC(=O)[C@@H](N)CC(=O)O)C(=O)N[C@@H](CC(C)C)C(=O)N[C@@H](CCCNC(=N)N)C(=O)N[C@H]1CSSC[C@@H](C(=O)N[C@@H](Cc2c[nH]c3ccccc23)C(=O)N[C@@H](CCC(N)=O)C(=O)N[C@H](C(=O)O)C(C)C)NC(=O)[C@@H]2CCCN2C(=O)[C@H](CCCNC(=N)N)NC(=O)[C@H](Cc2ccc(O)cc2)NC(=O)[C@H](C(C)C)NC(=O)[C@H](CCCNC(=N)N)NC(=O)CNC(=O)[C@H](CC(C)C)NC(=O)[C@H](CCSC)NC1=O [compound 43] (H-DFAMLRCMLGRVYRPCWQV-OH; disulfide 7-16; N-terminus and C-terminus assumed)			0.5		97	95	
CSCC[C@@H]1NC(=O)[C@@H](NC(=O)[C@H](CCCNC(=N)N)NC(=O)[C@H](CC(C)C)NC(=O)[C@H](C)NC(=O)[C@H](CC(=O)O)NC(=O)[C@H](Cc2ccccc2)NC(=O)[C@@H](N)CC(=O)O)CSSC[C@@H](C(=O)N[C@@H](Cc2c[nH]c3ccccc23)C(=O)N[C@@H](CCC(N)=O)C(=O)N[C@H](C(=O)O)C(C)C)NC(=O)[C@@H]2CCCN2C(=O)[C@H](CCCNC(=N)N)NC(=O)[C@H](Cc2ccc(O)cc2)NC(=O)[C@H](C(C)C)NC(=O)[C@H](CCCNC(=N)N)NC(=O)CNC(=O)[C@H](CC(C)C)NC1=O [compound 44] (H-DFDALRCMLGRVYRPCWQV-OH; disulfide 7-16; N-terminus and C-terminus assumed)			0.5		97	100	
CSCC[C@@H]1NC(=O)[C@@H](NC(=O)[C@H](CCCNC(=N)N)NC(=O)[C@H](CC(C)C)NC(=O)[C@H](CCSC)NC(=O)[C@H](CC(=O)O)NC(=O)[C@H](Cc2ccccc2)NC(=O)[C@@H](N)CC(=O)O)CSSC[C@@H](C(=O)N[C@@H](Cc2c[nH]c3ccccc23)C(=O)N[C@@H](CCC(N)=O)C(=O)N[C@H](C(=O)O)C(C)C)NC(=O)[C@@H]2CCCN2C(=O)[C@H](C)NC(=O)[C@H](Cc2ccc(O)cc2)NC(=O)[C@H](C(C)C)NC(=O)[C@H](CCCNC(=N)N)NC(=O)CNC(=O)[C@H](CC(C)C)NC1=O [compound 52] (H-DFDMLRCMLGRVYAPCWQV-OH; disulfide 7-16; N-terminus and C-terminus assumed)			1.4		97	81	187
CSCC[C@@H]1NC(=O)[C@@H](NC(=O)[C@H](CCCNC(=N)N)NC(=O)[C@H](CC(C)C)NC(=O)[C@H](CCSC)NC(=O)[C@H](CC(=O)O)NC(=O)[C@H](Cc2ccccc2)NC(=O)[C@@H](N)CC(=O)O)CSSC[C@@H](C(=O)N[C@@H](Cc2ccc(O)cc2)C(=O)N[C@@H](CCC(N)=O)C(=O)N[C@H](C(=O)O)C(C)C)NC(=O)[C@@H]2CCCN2C(=O)[C@H](CCCNC(=N)N)NC(=O)[C@H](Cc2ccccc2)NC(=O)[C@H](C(C)C)NC(=O)[C@H](CCCNC(=N)N)NC(=O)CNC(=O)[C@H](CC(C)C)NC1=O [compound 57] (H-DFDMLRCMLGRVFRPCYQV-OH; disulfide 7-16; N-terminus and C-terminus assumed)			0.6		97	92	1.5
